Reference: patent US20260206751A1, “NOVEL BICYCLIC-CARBOXAMIDE COMPOUNDS USEFUL AS PESTICIDES” (SYNGENTA CROP PROTECTION AG, priority 2022, published 2026)

Key:
Type in all cases: in vivo
[1] = tested on: Frankliniella occidentalis (Western Flower Thrips); experiment: Frankliniella occidentalis (western flower thrips) feeding/contact activity; details: foliar, 168 h, application rate 200 ppm, sprayed sunflower leaf discs, population of mixed ages, 7 days after infestation
Protocol: Example B3: Frankliniella occidentalis (Western Flower Thrips): Feeding/Contact Activity
Sunflower leaf discs were placed on agar in 24-well microtiter plates and sprayed with aqueous test solutions prepared from 10,000 DMSO stock solutions. After drying the leaf discs were infested with a Frankliniella population of mixed ages. The samples were assessed for mortality 7 days after infestation.

[2] = tested on: Myzus persicae (Green Peach Aphid); experiment: Myzus persicae (green peach aphid) intrinsic activity; details: 120 h, test rate 12 ppm, mixed with sucrose solution, Parafilm, infested pea seedlings, 5 days after infestation
Text: Example B5: Myzus persicae (Green Peach Aphid). Intrinsic Activity
Test compounds prepared from 10,000 ppm DMSO stock solutions were applied by pipette into 24-well microtiter plates and mixed with sucrose solution. The plates were closed with a stretched Parafilm. A plastic stencil with 24 holes was placed onto the plate and infested pea seedlings were placed directly on the Parafilm. The infested plate was closed with a gel blotting paper and another plastic stencil and then turned upside down. The samples were assessed for mortality 5 days after infestation.

[3] = tested on: Plutella xylostella (Diamond Back Moth); experiment: Plutella xylostella (diamond back moth) feeding/contact activity; details: 192 h, application rate 200 ppm, artificial diet, Plutella eggs, 8 days after infestation, read-out: effect in at least one of the two categories (mortality or growth inhibition)
Protocol: Example B7: Plutella xylostella (Diamond Back Moth) Feeding/Contact Activity
24-well microtiter plates with artificial diet were treated with aqueous test solutions prepared from 10,000 ppm DMSO stock solutions by pipetting. After drying, Plutella eggs were pipetted through a plastic stencil onto a gel blotting paper and the plate was closed with it. The samples were assessed for mortality and growth inhibition in comparison to untreated samples 8 days after infestation.

[4] = tested on: Spodoptera littoralis (Egyptian Cotton Leaf Worm); experiment: Spodoptera littoralis (Egyptian cotton leaf worm) feeding/contact activity; details: foliar, 72 h, application rate 200 ppm, sprayed cotton leaf discs, L1 larvae, 3 days after infestation, read-out: control (mortality, anti-feeding effect, growth inhibition)
Protocol: Example B8: Spodoptera littoralis (Egyptian Cotton Leaf Worm) Feeding/Contact Activity
Cotton leaf discs were placed onto agar in 24-well microtiter plates and sprayed with aqueous test solutions prepared from 10,000 ppm DMSO stock solutions. After drying the leaf discs were infested with five L1 larvae. The samples were assessed for mortality, anti-feeding effect, and growth inhibition in comparison to untreated samples 3 days after infestation. Control of Spodoptera littoralis by a test sample is given when at least one of the categories mortality, anti-feedant effect, and growth inhibition is higher than the untreated sample.

[5] = tested on: Myzus persicae (Green Peach Aphid); experiment: Myzus persicae (green peach aphid) feeding/contact activity, sunflower leaf discs; details: foliar, 144 h, application rate 200 ppm, sprayed sunflower leaf discs, aphid population of mixed ages, 6 days after infestation
Protocol: Example B4: Myzus persicae (Green Peach Aphid):Feeding/Contact Activity
(§1) Sunflower leaf discs were placed onto agar in a 24-well microtiter plate and sprayed with aqueous test solutions prepared from 10,000 ppm DMSO stock solutions. After drying, the leaf discs were infested with an aphid population of mixed ages. The samples were assessed for mortality 6 days after infestation.

[6] = tested on: Diabrotica balteata (Corn Root Worm); experiment: Diabrotica balteata (corn root worm) feeding/contact activity; details: 96 h, application rate 200 ppm, sprayed maize sprouts, L2 larvae, 4 days after infestation, read-out: effect in at least one of the two categories (mortality or growth inhibition)
Protocol: Example B1: Diabrotica balteata (Corn Root Worm) Feeding/Contact Activity
Maize sprouts placed onto an agar layer in 24-well microtiter plates were treated with aqueous test solutions prepared from 10,000 ppm DMSO stock solutions by spraying. After drying, the plates were infested with L2 larvae (6 to 10 per well). The samples were assessed for mortality and growth inhibition in comparison to untreated samples 4 days after infestation.

[7] = tested on: Euschistus heros (Neotropical Brown Stink Bug); experiment: Euschistus heros (neotropical brown stink bug) feeding/contact activity; details: 120 h, application rate 200 ppm, sprayed soybean leaves, N2 nymphs, 5 days after infestation, read-out: effect in at least one of the two categories (mortality or growth inhibition)
Protocol: Example B2: Euschistus heros (Neotropical Brown Stink Bug) Feeding/Contact Activity
Soybean leaves on agar in 24-well microtiter plates were sprayed with aqueous test solutions prepared from 10,000 ppm DMSO stock solutions. After drying the leaves were infested with N2 nymphs. The samples were assessed for mortality and growth inhibition in comparison to untreated samples 5 days after infestation.

[8] = tested on: Myzus persicae (Green Peach Aphid); experiment: Myzus persicae (green peach aphid) feeding/contact activity, eggplant leaf discs; details: foliar, 144 h, application rate 200 ppm, sprayed eggplant leaf discs, aphid population of mixed ages, 6 days after infestation, read-out: growth inhibition
Protocol: as §1, with “Example B6: Myzus persicae (Green Peach Aphid) Feeding/Contact Activity Eggplant” for “Sunflower”

[9] = tested on: Tetranychus urticae (Two-Spotted Spider Mite); experiment: Tetranychus urticae (two-spotted spider mite) feeding/contact activity; details: foliar, 192 h, application rate 200 ppm, sprayed bean leaf discs, mite population of mixed ages (mobile stages), 8 days after infestation
Protocol: Example B9: Tetranychus urticae (Two-Spotted Spider Mite): Feeding/Contact Activity
Bean leaf discs on agar in 24-well microtiter plates were sprayed with aqueous test solutions prepared from 10,000 ppm DMSO stock solutions. After drying the leaf discs were infested with a mite population of mixed ages. The samples were assessed for mortality on mixed population (mobile stages) 8 days after infestation.

Compound | mortality at 12 ppm [2] [%] | percent effect (mortality or growth inhibition) at 200 ppm [3] [%] | mortality at 200 ppm [5] [%] | also measured
C[C@@H](COc1cc2c(c(C(=O)NCc3ncccn3)c1)CCCC2)NS(=O)(=O)C(F)(F)F [P-23, N-(pyrimidin-2-ylmethyl)-7-[(2S)-2-(trifluoromethylsulfonylamino)propoxy]tetralin-5-carboxamide] |  |  |  | mortality at 200 ppm [1]: ≥ 80%
C[C@@H](COc1cc2c(c(C(=O)NC3(C#N)CCC3)c1)CCCC2)NS(=O)(=O)C(F)(F)F [P-11, N-(1-cyanocyclobutyl)-7-[(2S)-2-(trifluoromethylsulfonylamino)propoxy]tetralin-5-carboxamide] | ≥ 80 |  |  | 
C[C@@H](COc1cc2c(c(C(=O)NC34CC(C3)C4)c1)CCCC2)NS(=O)(=O)C(F)(F)F [P-32, N-(1-bicyclo[1.1.1]pentanyl)-7-[(2S)-2-(trifluoromethylsulfonylamino)propoxy]tetralin-5-carboxamide] | ≥ 80 | ≥ 80 |  | 
Cc1c(OC[C@H](C)NS(=O)(=O)C(F)(F)F)cc(C(=O)NC2CON(CC(F)(F)F)C2=O)c2c1CCC2 (stereo partly drawn) [P-40, 7-methyl-N-[3-oxo-2-(2,2,2-trifluoroethyl)isoxazolidin-4-yl]-6-[(2S)-2-(trifluoromethylsulfonylamino)propoxy]indane-4-carboxamide] | ≥ 80 | ≥ 80 |  | 
C[C@@H](COc1cc2c(c(C(=O)Nc3ccc(F)cc3F)c1)CCCC2)NS(=O)(=O)C(F)(F)F [P-22, N-(2,4-difluorophenyl)-7-[(2S)-2-(trifluoromethylsulfonylamino)propoxy]tetralin-5-carboxamide] |  |  |  | mortality at 200 ppm [4]: ≥ 80%
Cc1c(OC[C@H](C)NS(=O)(=O)C(F)(F)F)cc(C(=O)NC2(C#N)CC2)c2c1CCC2 [P-7, N-(1-cyanocyclopropyl)-7-methyl-6-[(2S)-2-(trifluoromethylsulfonylamino)propoxy]indane-4-carboxamide] | ≥ 80 |  | ≥ 80 | mortality at 200 ppm [1]: ≥ 80%
CO/N=C/NC(=O)c1cc(OC[C@H](C)NS(=O)(=O)C(F)(F)F)c(C)c2c1CCC2 [P-6, N-[(E)-methoxyiminomethyl]-7-methyl-6-[(2S)-2-(trifluoromethylsulfonylamino)propoxy]indane-4-carboxamide] |  |  | ≥ 80 | 
CCN1OC[C@@H](NC(=O)c2cc(OC[C@H](C)NS(=O)(=O)C(F)(F)F)c(C)c3c2CCC3)C1=O [P-2, N-[(4R)-2-ethyl-3-oxo-isoxazolidin-4-yl]-7-methyl-6-[(2S)-2-(trifluoromethylsulfonylamino)propoxy]indane-4-carboxamide] |  |  | ≥ 80 | 
Cc1c(OC[C@H](C)NS(=O)(=O)C(F)(F)F)cc(C(=O)NCC(F)(F)F)c2c1CCC2 [P-39, 7-methyl-N-(2,2,2-trifluoroethyl)-6-[(2S)-2-(trifluoromethylsulfonylamino)propoxy]indane-4-carboxamide] |  | ≥ 80 |  | 
COC(=O)C1(NC(=O)c2cc(OC[C@H](C)NS(=O)(=O)C(F)(F)F)c(C)c3c2CCC3)CC1 [P-4, methyl 1-[7-methyl-6-[(2S)-2-(trifluoromethylsulfonylamino)propoxy]indane-4-carbonyl]amino] cyclopropanecarboxylate] |  | ≥ 80 | ≥ 80 | 
C[C@@H](COc1cc2c(c(C(=O)NC3CC3)c1)CCCC2)NS(=O)(=O)C(F)(F)F [P-9, N-cyclopropyl-7-[(2S)-2-(trifluoromethylsulfonylamino)propoxy]tetralin-5-carboxamide] | ≥ 80 | ≥ 80 | ≥ 80 | 
C[C@@H](COc1cc2c(c(C(=O)NC3(C#N)CC3)c1)CCCC2)NS(=O)(=O)C(F)(F)F [P-8, N-(1-cyanocyclopropyl)-7-[(2S)-2-(trifluoromethylsulfonylamino)propoxy]tetralin-5-carboxamide] | ≥ 80 | ≥ 80 | ≥ 80 | 
Cc1c(OC[C@H](C)NS(=O)(=O)C(F)(F)F)cc(C(=O)NC2CC2)c2c1CCC2 [P-3] | ≥ 80 | ≥ 80 | ≥ 80 | percent effect (mortality or growth inhibition) at 200 ppm [6]: ≥ 80%; percent effect (mortality or growth inhibition) at 200 ppm [7]: ≥ 80%; mortality at 200 ppm [1]: ≥ 80%
C[C@@H](COc1cc2c(c(C(N)=O)c1)CCCC2)NS(=O)(=O)C(F)(F)F [P-30, 7-[(2S)-2-(trifluoromethylsulfonylamino)propoxy]tetralin-5-carboxamide] |  |  |  | inhibition at 200 ppm [8]: ≥ 80%
Cc1cc(F)ccc1NC(=O)c1cc(OC[C@H](C)NS(=O)(=O)C(F)(F)F)c(C)c2c1CCC2 [P-42, N-(4-fluoro-2-methyl-phenyl)-7-methyl-6-[(2S)-2-(trifluoromethylsulfonylamino)propoxy]indane-4-carboxamide] | ≥ 80 |  |  | 
C[C@@H](COc1cc2c(c(C(=O)NC3CC3)c1)CCC2)NS(=O)(=O)C(F)(F)F [P-33, N-cyclopropyl-6-[(2S)-2-(trifluoromethylsulfonylamino)propoxy]indane-4-carboxamide] |  |  |  | inhibition at 200 ppm [8]: ≥ 80%; percent effect (mortality or growth inhibition) at 200 ppm [7]: ≥ 80%
Cc1c(OC[C@H](C)NS(=O)(=O)C(F)(F)F)cc(C(N)=O)c2c1CCC2 [P-1, 7-methyl-6-[(2S)-2-(trifluoromethylsulfonylamino)propoxy]indane-4-carboxamide] |  |  | ≥ 80 | 
Cc1cc(F)ccc1NC(=O)c1cc(OC[C@H](C)NS(=O)(=O)C(F)(F)F)cc2c1CCCC2 [P-28, N-(4-fluoro-2-methyl-phenyl)-7-[(2S)-2-(trifluoromethylsulfonylamino)propoxy]tetralin-5-carboxamide] |  | ≥ 80 |  | 
Cc1c(OC[C@H](C)NS(=O)(=O)C(Cl)Cl)cc(C(=O)NC2CC2)c2c1CCC2 [P-34, N-cyclopropyl-6-[(2S)-2-(dichloromethylsulfonylamino)propoxy]-7-methyl-indane-4-carboxamide] |  |  |  | mortality at 200 ppm [9]: ≥ 80%
Cc1c(OC[C@H](C)NS(=O)(=O)C(F)(F)F)cc(C(=O)NC2(C(=O)O)CC2)c2c1CCC2 [P-5] |  |  | ≥ 80 | 
Cc1c(OC[C@H](C)NS(=O)(=O)C(F)(F)F)cc(C(=O)NC23CC(C2)C3)c2c1CCC2 [P-41, N-(1-bicyclo[1.1.1]pentanyl)-7-methyl-6-[(2S)-2-(trifluoromethylsulfonylamino)propoxy]indane-4-carboxamide] | ≥ 80 | ≥ 80 |  | 
C[C@@H](COc1cc2c(c(C(=O)NCC(F)(F)F)c1)CCCC2)NS(=O)(=O)C(F)(F)F [P-15, N-(2,2,2-trifluoroethyl)-7-[(2S)-2-(trifluoromethylsulfonylamino)propoxy]tetralin-5-carboxamide] |  | ≥ 80 |  | 
